The values that follow come from article PMC12175907 (Science Advances, 2025).

Entries after “also recorded” stand apart in the source; their conditions may differ.

The subject of data set [1] is rats. Put plainly: food and kaolin consumption and body weight in rats (semaglutide, tirzepatide). The class given is in vivo, Sprague-Dawley rat. From the text: Adult male Sprague-Dawley rats (Charles River) weighing ~250 to 270 g (n = 45) at arrival were housed under a 12-hour/12-hour light/dark cycle in a temperature-controlled and humidity-controlled vivarium. Rats were individually housed in hanging wire-bottom cage with ad libitum access to chow diet (Purina Lab Diet 5001) or, when noted, to high-fat/high-sugar diet (60% fat diet, 12492, Research Diets) and tap water and had ad libitum access to kaolin pellets (Research Diets, K50001). Rats were exposed to kaolin for at least 5 days prior to measuring kaolin consumption in pica testing. Kaolin intake and food consumption were measured simultaneously as the presence of kaolin in the cage, and its subsequent ingestion, has usually negligible effects on the hypophagic and body weight–lowering effects of the treatments.
GIPFA-085 (GIP-085), tirzepatide, and GLP-140 were designed and produced by Eli Lilly and Company. GIP-085, GLP-140, and semaglutide (Cayman Chemical) were dissolved in 40 mM tris-HCl buffer (pH 8) and 0.02% Tween 80. For the study in mice, all drugs were injected subcutaneously at a volume of 5 ml/kg of body weight. In rats, all drugs were injected intraperitoneally, at a volume of 1 ml/kg of body weight, except when noted. In shrews, all drugs were injected intraperitoneally at a volume of 10 ml/kg of body weight.
In two separate cohorts of rats (n = 10 per group, body weight ~ 460 ± 9 g), food consumption, kaolin intake, and body weight were measured after an intraperitoneal administration of vehicle, semaglutide (10 and 100 nmol/kg), or tirzepatide (10 and 100 nmol/kg), respectively. Food and kaolin intake were measured at 3, 6, 24, and 48 hours postinjection, and body weight was measured at 0, 24, and 48 hours. For each drug, a within-subject paradigm was used, with each round of injections separated by 7 days.

For data set [2], the system named is shrews. Description: emesis, tirzepatide dose-response, shrews. Format: in vivo, Suncus murinus. To be noted: 10, 100 and 1000 nmol/kg ip; 120 min; n = 9 per group. From the text: Adult male shrews (S. murinus) weighing ~50 to 80 g (n = 84 total) were bred and maintained in the De Jonghe Lab (University of Pennsylvania). These animals were offspring from a colony previously maintained at the University of Pittsburgh Cancer Institute (C. Horn); a Taiwanese strain was derived from stock originally supplied by the Chinese University of Hong Kong. Shrews were singly housed in plastic cages (37.3 cm by 23.4 cm by 14 cm, Innovive) under a 12-hour/12-hour light/dark cycle in a temperature-controlled and humidity-controlled environment. Animal were fed ad libitum with a mixture of feline (75%, Laboratory Feline Diet 5003, Lab Diet) and mink food (25%, High Density Ferret Diet 5LI4, Lab Diet) and had ad libitum access to tap water except where noted.
We then evaluated the emetogenic actions of tirzepatide (10, 100, and 1000 nmol/kg) or vehicle in a different cohort of shrews (n = 9). The animals were habituated to the experimental conditions as described above. Treatments were separated by 7 days. Emetic episodes were recorded and quantified as described above.

The subject of data set [3] is patients. To be noted: human, in vivo; cited from earlier work.

In the case of `CC[C@H](C)[C@H](NC(=O)[C@H](CC(C)C)NC(=O)[C@H](Cc1c[nH]c2ccccc12)NC(=O)[C@H](CCC(N)=O)NC(=O)[C@@H](NC(=O)[C@H](Cc1ccccc1)NC(=O)[C@H](C)NC(=O)[C@H](CCCCNC(=O)COCCOCCNC(=O)COCCOCCNC(=O)CC[C@H](NC(=O)CCCCCCCCCCCCCCCCCCC(=O)O)C(=O)O)NC(=O)[C@H](CCC(N)=O)NC(=O)[C@H](C)NC(=O)[C@@H](NC(=O)[C@H](CCCCN)NC(=O)[C@H](CC(=O)O)NC(=O)[C@H](CC(C)C)NC(=O)C(C)(C)NC(=O)[C@@H](NC(=O)[C@H](CO)NC(=O)[C@H](Cc1ccc(O)cc1)NC(=O)[C@H](CC(=O)O)NC(=O)[C@H](CO)NC(=O)[C@@H](NC(=O)[C@H](Cc1ccccc1)NC(=O)[C@@H](NC(=O)CNC(=O)[C@H](CCC(=O)O)NC(=O)C(C)(C)NC(=O)[C@@H](N)Cc1ccc(O)cc1)[C@@H](C)O)[C@@H](C)O)[C@@H](C)CC)[C@@H](C)CC)C(C)C)C(=O)N[C@@H](C)C(=O)NCC(=O)NCC(=O)N1CCC[C@H]1C(=O)N[C@@H](CO)C(=O)N[C@@H](CO)C(=O)NCC(=O)N[C@@H](C)C(=O)N1CCC[C@H]1C(=O)N1CCC[C@H]1C(=O)N1CCC[C@H]1C(=O)N[C@@H](CO)C(N)=O` [tirzepatide], the kaolin intake result in data set [1] (100 nmol/kg ip, n = 10 per group, vs vehicle) was “causes significant kaolin intake”. Besides, the “kaolin consumption, semaglutide vs tirzepatide” value in data set [1] (100 nmol/kg ip, n = 10 to 20 per group) is “induces less kaolin consumption in rats compared to equipotent doses of semaglutide”. Besides, the “kaolin consumption vs vehicle, tirzepatide” value in data set [1] (tirzepatide, rats (dose not stated at this place)) is “still significantly elevated compared to vehicle-treated animals”. Further, the emesis entry in data set [2] is reported as “complete absence of emesis; also recorded: no emesis occurred; also recorded: complete absence of any emetic episode”.
“AMG 133: bispecific molecule engineered by conjugating a GIPR antagonizing antibody with a GLP-1R agonist”: the patients reporting nausea in data set [3] is 100%.
